Like-named read-outs stand apart in the source and are kept apart here.
Assays:
[1] = Storage stability of crystalline Form I (solid form after storage, XRPD); assay type: physicochemical
Description: (§1) XRPD of the samples were obtained by using Panalytical X′Pert Pro X-Ray Powder Diffractometer in the range 3-40 degree 2 theta and under tube voltage and current of 45 Kv and 40 mA respectively. Copper radiation of wavelength 1.54 angstrom and Xceletor detector was used. Form II of lamivudine: Not detectable (Limit of detection: 0.5% by XRPD) The stable crystalline Form I of lamivudine obtained from Example 2 was subjected to the following conditions: […]

[2] = Stability of crystalline Form I to milling (solid form after milling, XRPD); assay type: physicochemical
Description: as §1, with “In one aspect, a stable crystalline Form I of lamivudine is provided. […] The term milling refers to an act or process of grinding, crushing, pulverizing, powdering, atomizing, pestling, levigating, sifting, sieving, size reducing, or passing through a milling device. […] XRPD of” for “XRPD of”

[3] = during milling and formulation operation; prior-art Form I per WO 2007/119248; cited from earlier work

| Resultant Material after storage ([1]; Stored at 25 ± 2° C. at 60 ± 5% RH for 3 months) | Resultant Material after storage ([1]; Stored at 40 ± 2° C. at 75 ± 5% RH for 1 month) | Resultant Material after storage ([1]; Stored at 40 ± 2° C. at 75 ± 5% RH for 2 months) | Resultant Material after storage ([1]; Stored at 40 ± 2° C. at 75 ± 5% RH for 3 months) | Solid-form stability on storage ([1]; stored up to three months at a temperature up to about 45° C. and at a relative humidity of about 25% to about 85%) | Resultant Material after milling ([2]; Milled in a multimill (2 mm mesh size)) | Conversion of solid form on milling ([2]; pharmaceutical operations such as milling) | SMILES | Conversion of solid form on milling [3] |
| --- | --- | --- | --- | --- | --- | --- | --- | --- |
| Form I | Form I | Form I | Form I | remains stable | Form I | does not convert to Form II | Nc1ccn([C@@H]2CS[C@H](CO)O2)c(=O)n1 [Form I obtained from Example 2, (2R,cis)-4-amino-1-(2-hydroxymethyl-1,3-oxathiolan-5-yl)-(1H)-pyrimidin-2-one] | – |
| – | – | – | – | – | – | – | Nc1ccn([C@@H]2CS[C@H](CO)O2)c(=O)n1 [Form I, (2R,cis)-4-amino-1-(2-hydroxymethyl-1,3-oxathiolan-5-yl)-(1H)-pyrimidin-2-one] | converts to Form II |
